# Experimental data from patent publication US11524938B2, “Aromatic sulfonamide derivatives” (Bayer Pharma Aktiengesellschaft, priority 2016, dated 2022).
# pIC50: −log10 of the molar value.
# Biological target: T1, human P2X4 (Homo sapiens, UniProt Q99571)
# T1 sequence (Q99571 1-388): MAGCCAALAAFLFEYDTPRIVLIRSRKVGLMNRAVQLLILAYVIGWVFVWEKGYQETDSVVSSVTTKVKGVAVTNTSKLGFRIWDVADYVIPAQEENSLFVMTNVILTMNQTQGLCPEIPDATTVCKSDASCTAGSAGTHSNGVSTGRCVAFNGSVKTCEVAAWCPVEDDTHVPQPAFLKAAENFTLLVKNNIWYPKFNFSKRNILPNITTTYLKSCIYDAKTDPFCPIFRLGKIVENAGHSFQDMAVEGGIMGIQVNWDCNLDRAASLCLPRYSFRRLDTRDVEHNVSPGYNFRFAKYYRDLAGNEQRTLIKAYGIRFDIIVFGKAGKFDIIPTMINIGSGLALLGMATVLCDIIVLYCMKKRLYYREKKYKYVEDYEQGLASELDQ
# Test: Human P2X4 HEK Cell FLIPR Assay
# Type: cell-based
# Details: agonist Bz-ATP at EC80; for Emax: HEK293, HEK293 cells, percentage of maximal inhibition, read-out: Human P2X4 HEK Cells (FLIPR Assay) avg Efficacy [%]; for pIC50: HEK293 cells, individual values listed where some fall outside detection range
# Procedure, shortened: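 HEK293 cells stably expressing human P2X4, Fluo8-AM loaded 30 min at 37° C, then compound 30 min at room temperature (0.5% DMSO, pH 7.4 buffer with 1.8 mM CaCl2). Bz-ATP at its daily-determined EC80 added; calcium fluorescence read over 120 sec; IC50 from peak RFU normalized to agonist control, triplicates.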
Structure (SMILES),Emax [%],pIC50
"NS(=O)(=O)c1cc(NC(=O)Cc2ccccc2Cl)ccc1-c1cnc(OCC(F)(F)F)nc1 [Example 284, 2-(2-Chlorophenyl)-N-{3-sulfamoyl-4-[2-(2,2,2-trifluoroethoxy)pyrimidin-5-yl]phenyl}-acetamide]",94,7.27
"CC(C)OCCn1cc(-c2ccc(NC(=O)Cc3ccccc3Cl)cc2S(N)(=O)=O)cn1 [Example 286, 2-(2-Chlorophenyl)-N-(4-{1-[2-(propan-2-yloxy)ethyl]-1H-pyrazol-4-yl}-3-sulfamoylphenyl)acetamide]",87,8.22
"CC(C)(O)CCn1cc(-c2ccc(NC(=O)Cc3ccccc3Cl)cc2S(N)(=O)=O)cn1 [Example 287, 2-(2-Chlorophenyl)-N-{4-[1-(3-hydroxy-3-methylbutyl)-1H-pyrazol-4-yl]-3-sulfamoyl-phenyl}acetamide]",78,7.51
"Cn1nc(-c2ccc(NC(=O)Cc3ccccc3Cl)cc2S(N)(=O)=O)cc1C(C)(C)O [Example 288, 2-(2-Chlorophenyl)-N-{4-[5-(2-hydroxypropan-2-yl)-1-methyl-1H-pyrazol-3-yl]-3-sulfamoylphenyl}acetamide]",68,6.56
"NS(=O)(=O)c1cc(NC(=O)Cc2ccccc2Cl)ccc1-c1cncc(OC(F)F)c1 [Example 289, 2-(2-Chlorophenyl)-N-{4-[5-(difluoromethoxy)pyridin-3-yl]-3-sulfamoylphenyl}acetamide]",89,8.22
"NS(=O)(=O)c1cc(NC(=O)Cc2ccccc2Cl)ccc1-c1cnn(CCO)c1 [Example 291, 2-(2-Chlorophenyl)-N-{4-[1-(2-hydroxyethyl)-1H-pyrazol-4-yl]-3-sulfamoylphenyl}acetamide]",95,7.00
"CC(C)(C)c1cc(-c2ccc(NC(=O)Cc3ccccc3Cl)cc2S(N)(=O)=O)n[nH]1 [Example 292, N-[4-(5-tert-Butyl-1H-pyrazol-3-yl)-3-sulfamoylphenyl]-2-(2-chlorophenyl)acetamide]",87,7.24
"NS(=O)(=O)c1cc(NC(=O)Cc2ccccc2Cl)ccc1-c1cnn(Cc2ccccc2)c1 [Example 293, N-[4-(1-Benzyl-1H-pyrazol-4-yl)-3-sulfamoylphenyl]-2-(2-chlorophenyl)acetamide]",75,7.12
"NS(=O)(=O)c1cc(NC(=O)Cc2ccccc2Cl)ccc1-c1cccc(C(F)(F)F)n1 [Example 295, 2-(2-Chlorophenyl)-N-{3-sulfamoyl-4-[6-(trifluoromethyl)pyridin-2-yl]phenyl}acetamide]",9,< 4.60
"NS(=O)(=O)c1cc(NC(=O)Cc2ccccc2F)ccc1-c1cnn(C(F)F)c1 [Example 296, N-{4-[1-(Difluoromethyl)-1H-pyrazol-4-yl]-3-sulfamoylphenyl}-2-(2-fluorophenyl)acetamide]",87,6.87
"NS(=O)(=O)c1cc(NC(=O)Cc2ccccc2Cl)cnc1-c1cnn(C(F)F)c1 [Example 297, 2-(2-Chlorophenyl)-N-{6-[1-(difluoromethyl)-1H-pyrazol-4-yl]-5-sulfamoylpyridin-3-yl}acetamide]",87,7.49
"NS(=O)(=O)c1cc(NC(=O)Cc2ccccc2Cl)ccc1-c1cnc(NC2CC2)nc1 [Example 299, 2-(2-Chlorophenyl)-N-{4-[2-(cyclopropylamino)pyrimidin-5-yl]-3-sulfamoylphenyl}acetamide]",88,6.69
"NS(=O)(=O)c1cc(NC(=O)Cc2ccccc2Cl)ccc1-c1cnn(C2CCOC2)c1 (stereo not shown) [Example 300, 2-(2-Chlorophenyl)-N-{3-sulfamoyl-4-[1-(tetrahydrofuran-3-yl)-1H-pyrazol-4-yl]phenyl}acetamide]",100,7.57
"Cn1cc(-c2ncc(NC(=O)Cc3ccccc3Cl)cc2S(N)(=O)=O)cn1 [Example 302, 2-(2-Chlorophenyl)-N-[6-(1-methyl-1H-pyrazol-4-yl)-5-sulfamoylpyridin-3-yl]acetamide]",97,7.25
"NS(=O)(=O)c1cc(NC(=O)Cc2ccccc2Cl)ccc1-c1cnn(CC(F)F)c1 [Example 303, 2-(2-Chlorophenyl)-N-{4-[1-(2,2-difluoroethyl)-1H-pyrazol-4-yl]-3-sulfamoylphenyl}acetamide]",91,7.01
"NS(=O)(=O)c1cc(NC(=O)Cc2ccccc2C(F)(F)F)ccc1-c1cncc(C(F)(F)F)c1 [Example 304, N-{3-Sulfamoyl-4-[5-(trifluoromethyl)pyridin-3-yl]phenyl}-2-[2-(trifluoromethyl)phenyl]acetamide]",65,7.14
"NS(=O)(=O)c1cc(NC(=O)Cc2ccccc2Cl)cnc1-c1cncc(C(F)(F)F)c1 [Example 305, 2-(2-Chlorophenyl)-N-[3-sulfamoyl-5′-(trifluoromethyl)-2,3′-bipyridin-5-yl]acetamide]",49,7.68
"NS(=O)(=O)c1cc(NC(=O)Cc2ccccc2Cl)ccc1-c1cnc(C(F)(F)F)nc1 [Example 306, 2-(2-Chlorophenyl)-N-{3-sulfamoyl-4-[2-(trifluoromethyl)pyrimidin-5-yl]phenyl}acetamide]",80,6.56
"NS(=O)(=O)c1cc(NC(=O)Cc2ccccc2Cl)ccc1-c1cncc(OC(F)(F)F)c1 [Example 307, 2-(2-Chlorophenyl)-N-{3-sulfamoyl-4-[5-(trifluoromethoxy)pyridin-3-yl]phenyl}acetamide]",62,6.94
"NS(=O)(=O)c1cc(NC(=O)Cc2ccccc2Cl)ccc1-c1cnc(NCC(F)(F)F)nc1 [Example 315, 2-(2-Chlorophenyl)-N-(3-sulfamoyl-4-{2-[(2,2,2-trifluoroethyl)amino]pyrimidin-5-yl}phenyl)acetamide]",81,7.47

# Next, values leading:
Emax [%],pIC50,Structure (SMILES)
97,6.61,"COc1ncc(-c2ccc(NC(=O)Cc3ccccc3Cl)cc2S(N)(=O)=O)cn1 [Example 285, 2-(2-Chlorophenyl)-N-[4-(2-methoxypyrimidin-5-yl)-3-sulfamoylphenyl]acetamide]"
81,7.44,"COc1cnc(Cl)c(-c2ccc(NC(=O)Cc3ccccc3Cl)cc2S(N)(=O)=O)c1 [Example 290, N-[4-(2-Chloro-5-methoxypyridin-3-yl)-3-sulfamoylphenyl]-2-(2-chlorophenyl)acetamide]"
75,6.76,"Cc1cc(-c2ccc(NC(=O)Cc3ccccc3Cl)cc2S(N)(=O)=O)cnn1 [Example 294, 2-(2-Chlorophenyl)-N-[4-(6-methylpyridazin-4-yl)-3-sulfamoylphenyl]acetamide]"
104,6.97,"Cc1cc(-c2ccc(NC(=O)Cc3ccccc3Cl)cc2S(N)(=O)=O)cnc1Cl [Example 298, N-[4-(6-Chloro-5-methylpyridin-3-yl)-3-sulfamoylphenyl]-2-(2-chlorophenyl)acetamide]"
74,8.00,"CNc1ncc(-c2ccc(NC(=O)Cc3ccccc3Cl)cc2S(N)(=O)=O)cn1 [Example 301, 2-(2-Chlorophenyl)-N-{4-[2-(methylamino)pyrimidin-5-yl]-3-sulfamoylphenyl}acetamide]"
91,7.19,"NS(=O)(=O)c1cc(NC(=O)Cc2ccccc2Cl)ccc1-c1cnc(C2CC2)nc1 [Example 308, 2-(2-Chlorophenyl)-N-[4-(2-cyclopropylpyrimidin-5-yl)-3-sulfamoylphenyl]acetamide]"
93,6.50,"CCOc1ncc(-c2ccc(NC(=O)Cc3ccccc3Cl)cc2S(N)(=O)=O)cn1 [Example 309, 2-(2-Chlorophenyl)-N-[4-(2-ethoxypyrimidin-5-yl)-3-sulfamoylphenyl]acetamide]"
59,7.07,"CC(C)Nc1ncc(-c2ccc(NC(=O)Cc3ccccc3Cl)cc2S(N)(=O)=O)cn1 [Example 310, 2-(2-Chlorophenyl)-N-{4-[2-(propan-2-ylamino)pyrimidin-5-yl]-3-sulfamoylphenyl}acetamide]"
104,6.55,"CC(C)Oc1ncc(-c2ccc(NC(=O)Cc3ccccc3Cl)cc2S(N)(=O)=O)cn1 [Example 311, 2-(2-Chlorophenyl)-N-{4-[2-(propan-2-yloxy)pyrimidin-5-yl]-3-sulfamoylphenyl}acetamide]"
69,7.43,"CCNc1ncc(-c2ccc(NC(=O)Cc3ccccc3Cl)cc2S(N)(=O)=O)cn1 [Example 312, 2-(2-Chlorophenyl)-N-{4-[2-(ethylamino)pyrimidin-5-yl]-3-sulfamoylphenyl}-acetamide]"
82,6.15,"Cc1ncc(-c2ccc(NC(=O)Cc3ccccc3Cl)cc2S(N)(=O)=O)cn1 [Example 313, 2-(2-Chlorophenyl)-N-[4-(2-methylpyrimidin-5-yl)-3-sulfamoylphenyl]acetamide]"
83,7.57,"CCCNc1ncc(-c2ccc(NC(=O)Cc3ccccc3Cl)cc2S(N)(=O)=O)cn1 [Example 314, 2-(2-Chlorophenyl)-N-{4-[2-(propylamino)pyrimidin-5-yl]-3-sulfamoylphenyl}-acetamide]"
